Results reported in ChEMBL document CHEMBL1201862, “PubChem BioAssay data set” (2004).
The source made the active and inactive calls. Cut-off read from the data, not from the text of the source, for most assays here: actives have a measured IC50 and inactives only a lower limit.

Key:
Cytochrome P450 2D6 = Cytochrome P450 2D6 (Homo sapiens, UniProt P10635); assay: qHTS Assay for Inhibitors and Substrates of Cytochrome P450 2D6. [Related pubchem assays: 410 ]; format: ADME; details: read-out: Potency
[1] = target: Nucleotide-binding oligomerization domain-containing protein 2 (Homo sapiens, UniProt Q9HC29); assay: PubChem AID 2334; format: functional
HEK293 = assay: cells; details: Homo sapiens;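 note: cells exposed to compound for 14 hours overnight before viability readout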
[2] = target: T1, Nucleotide-binding oligomerization domain-containing protein 1 (Homo sapiens, UniProt Q9Y239); assay: blockers of NOD1 pathway activity – revised, SAR follow-up (AID 2333); format: functional
T1 sequence (Q9Y239 whole entry): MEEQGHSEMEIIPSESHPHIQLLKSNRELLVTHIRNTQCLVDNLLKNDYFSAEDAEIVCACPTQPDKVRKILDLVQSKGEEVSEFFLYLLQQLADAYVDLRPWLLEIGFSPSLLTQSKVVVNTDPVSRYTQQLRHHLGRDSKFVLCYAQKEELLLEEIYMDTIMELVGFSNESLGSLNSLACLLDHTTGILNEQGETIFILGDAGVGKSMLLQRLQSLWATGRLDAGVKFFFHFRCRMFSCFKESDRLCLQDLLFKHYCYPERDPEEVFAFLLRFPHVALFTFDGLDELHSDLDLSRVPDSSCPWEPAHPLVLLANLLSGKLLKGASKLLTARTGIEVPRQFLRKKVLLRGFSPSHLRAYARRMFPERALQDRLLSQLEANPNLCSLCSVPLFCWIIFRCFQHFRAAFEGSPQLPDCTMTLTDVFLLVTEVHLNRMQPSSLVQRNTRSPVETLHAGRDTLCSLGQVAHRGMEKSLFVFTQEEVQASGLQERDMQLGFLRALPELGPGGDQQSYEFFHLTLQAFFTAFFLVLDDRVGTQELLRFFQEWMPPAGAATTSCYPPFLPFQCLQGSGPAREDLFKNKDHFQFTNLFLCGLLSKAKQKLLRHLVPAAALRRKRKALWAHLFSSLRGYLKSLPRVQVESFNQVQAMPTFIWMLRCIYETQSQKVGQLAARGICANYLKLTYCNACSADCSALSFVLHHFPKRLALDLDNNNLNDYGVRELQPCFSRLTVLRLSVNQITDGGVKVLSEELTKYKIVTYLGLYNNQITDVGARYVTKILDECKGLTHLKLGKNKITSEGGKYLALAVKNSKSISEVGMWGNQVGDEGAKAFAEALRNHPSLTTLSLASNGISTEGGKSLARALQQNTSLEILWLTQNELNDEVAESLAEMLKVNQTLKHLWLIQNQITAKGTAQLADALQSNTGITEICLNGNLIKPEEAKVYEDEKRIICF

Tumor necrosis factor = Tumor necrosis factor (Homo sapiens, UniProt P01375); assay: analog potency on TNFa NF-kB signaling – cell-based, revised, SAR follow-up (AID 2337); format: functional
[3] = target: T2, Alkaline phosphatase, tissue-nonspecific isozyme (Homo sapiens, UniProt P05186)
T2 sequence (P05186 whole entry): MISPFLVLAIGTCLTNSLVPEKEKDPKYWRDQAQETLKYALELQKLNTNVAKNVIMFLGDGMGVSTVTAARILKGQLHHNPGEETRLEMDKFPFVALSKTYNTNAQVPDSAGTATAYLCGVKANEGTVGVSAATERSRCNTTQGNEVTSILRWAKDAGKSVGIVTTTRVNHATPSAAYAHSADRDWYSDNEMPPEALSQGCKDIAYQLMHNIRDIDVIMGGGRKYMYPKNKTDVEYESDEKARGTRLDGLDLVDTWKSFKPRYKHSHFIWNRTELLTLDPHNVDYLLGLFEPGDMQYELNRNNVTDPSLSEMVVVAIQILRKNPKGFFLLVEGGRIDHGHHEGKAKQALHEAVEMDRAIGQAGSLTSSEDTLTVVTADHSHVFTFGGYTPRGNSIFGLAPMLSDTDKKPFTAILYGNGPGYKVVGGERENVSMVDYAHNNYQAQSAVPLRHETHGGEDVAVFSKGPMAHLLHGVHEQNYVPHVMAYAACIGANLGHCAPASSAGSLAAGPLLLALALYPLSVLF

[4] = target: Dual specificity protein phosphatase 3 (Homo sapiens, UniProt P51452); assay: inhibition constants for human DUSP3 – biochemical, colorimetric, SAR follow-up (AID 2004)
Chain of Dual specificity protein phosphatase 3 (P51452 whole entry): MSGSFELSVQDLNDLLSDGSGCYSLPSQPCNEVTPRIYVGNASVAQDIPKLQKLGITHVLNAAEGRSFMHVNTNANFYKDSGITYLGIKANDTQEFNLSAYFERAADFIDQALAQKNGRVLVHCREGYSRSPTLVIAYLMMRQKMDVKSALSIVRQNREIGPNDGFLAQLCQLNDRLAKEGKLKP

Chain of Cytochrome P450 2D6 (P10635 whole entry, the tested form may be a part): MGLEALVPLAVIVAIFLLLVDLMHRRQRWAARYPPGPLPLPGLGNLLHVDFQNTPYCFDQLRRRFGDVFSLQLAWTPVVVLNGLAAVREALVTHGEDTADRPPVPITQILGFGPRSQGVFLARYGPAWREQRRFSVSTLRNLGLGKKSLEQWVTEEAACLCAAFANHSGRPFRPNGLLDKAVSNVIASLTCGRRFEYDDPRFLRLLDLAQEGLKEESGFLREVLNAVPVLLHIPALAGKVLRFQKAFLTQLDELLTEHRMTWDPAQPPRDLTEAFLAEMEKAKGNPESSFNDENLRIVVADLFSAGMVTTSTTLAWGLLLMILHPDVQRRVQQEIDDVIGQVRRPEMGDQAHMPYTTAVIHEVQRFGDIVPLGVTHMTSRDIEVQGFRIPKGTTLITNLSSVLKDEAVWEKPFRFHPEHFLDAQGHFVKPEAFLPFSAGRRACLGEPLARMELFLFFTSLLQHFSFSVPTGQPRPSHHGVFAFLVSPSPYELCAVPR
Chain of Tumor necrosis factor (P01375 whole entry): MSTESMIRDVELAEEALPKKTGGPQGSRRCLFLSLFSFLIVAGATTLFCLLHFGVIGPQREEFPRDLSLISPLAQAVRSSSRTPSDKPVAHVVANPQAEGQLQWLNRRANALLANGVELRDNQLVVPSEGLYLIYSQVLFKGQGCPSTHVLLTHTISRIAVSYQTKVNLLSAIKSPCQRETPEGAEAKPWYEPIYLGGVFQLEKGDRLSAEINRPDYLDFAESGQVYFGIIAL
Chain of Nucleotide-binding oligomerization domain-containing protein 2 (Q9HC29 whole entry, the tested form may be a part): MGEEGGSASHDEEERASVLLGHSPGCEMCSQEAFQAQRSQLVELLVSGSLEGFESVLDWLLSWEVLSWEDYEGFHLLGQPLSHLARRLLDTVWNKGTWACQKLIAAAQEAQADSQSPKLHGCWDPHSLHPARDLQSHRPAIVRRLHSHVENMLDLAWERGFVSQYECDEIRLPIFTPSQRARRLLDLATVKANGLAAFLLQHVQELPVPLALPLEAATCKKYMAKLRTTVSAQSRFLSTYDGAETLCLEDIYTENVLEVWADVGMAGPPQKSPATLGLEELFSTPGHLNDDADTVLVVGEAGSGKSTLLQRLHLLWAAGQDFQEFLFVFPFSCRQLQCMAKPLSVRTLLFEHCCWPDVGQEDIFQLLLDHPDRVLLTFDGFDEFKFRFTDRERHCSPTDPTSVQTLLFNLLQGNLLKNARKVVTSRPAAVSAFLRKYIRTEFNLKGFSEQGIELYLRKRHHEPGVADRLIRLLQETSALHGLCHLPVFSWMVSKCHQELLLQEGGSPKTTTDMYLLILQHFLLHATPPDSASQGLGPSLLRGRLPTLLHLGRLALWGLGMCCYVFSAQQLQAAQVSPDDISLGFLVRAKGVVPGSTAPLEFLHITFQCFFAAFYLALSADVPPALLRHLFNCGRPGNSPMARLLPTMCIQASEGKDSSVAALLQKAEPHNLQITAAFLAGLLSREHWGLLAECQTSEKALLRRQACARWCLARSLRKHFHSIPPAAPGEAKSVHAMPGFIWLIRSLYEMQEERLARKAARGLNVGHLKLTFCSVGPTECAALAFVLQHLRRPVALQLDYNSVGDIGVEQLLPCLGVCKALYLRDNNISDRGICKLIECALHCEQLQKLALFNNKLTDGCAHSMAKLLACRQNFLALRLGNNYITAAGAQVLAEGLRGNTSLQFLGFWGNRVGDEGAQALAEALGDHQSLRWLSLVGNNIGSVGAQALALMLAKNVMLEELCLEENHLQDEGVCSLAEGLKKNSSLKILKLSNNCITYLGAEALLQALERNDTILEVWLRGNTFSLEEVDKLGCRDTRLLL

Which AC50 (Cytochrome P450 2D6) does the source give for `CCCCc1nc2c(c3c1CC(C)OC3)CN(CCC(C)C)CC2` (configuration not stated) here?
The AC50 was 3.98 µM (inconclusive).

For `CCCCNCC(=O)Nc1sc2c(c1C(=O)O)CCCC2`, which IC50 [1] is on record?
Its IC50 is > 20 µM (inactive).

What about the IC50 (HEK293) of the same compound?
The IC50 was > 20 µM (inactive).

What about the IC50 [2] of the same compound?
Its IC50 is > 20 µM (inactive).

And the IC50 (Tumor necrosis factor)?
The IC50 was > 20 µM (inactive).

Which EC50 [3] does the source give for `Cn1c(=O)c2c(nc(N/N=C/c3cccs3)n2Cc2ccc(Br)cc2)n(C)c1=O` here?
Its EC50 is > 100 µM (not active).

For `CCOC(=O)c1c(N)sc2c1CCN(Cc1ccccc1)C2` [TINORIDINE], which Ki [4] is on record?
The Ki was 20.5 µM (inactive).
